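Protocol summary: plate cells (96-well), add compound at 5 concentrations, incubate 48 h, interpolate endpoints linearly. GI50 is the concentration that inhibits growth by half. At the TGI there is no net growth.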
What was measured:
Assay in all cases: NCI anticancer screen, dose series, 48 h
[1] = system: TK-10 renal
[2] = system: SF-268 CNS
[3] = system: SK-MEL-2 melanoma
[4] = system: EKVX NSCLC
[5] = system: SN12C renal
[6] = system: NCI-H460 lung
[7] = system: PC-3 prostate
[8] = system: HS 578T breast
[9] = system: K-562 leukemia
[10] = system: DU-145 prostate
[11] = system: HCT-116 colon
[12] = system: SF-295 CNS
[13] = system: OVCAR-4 ovarian
[14] = system: LOX IMVI melanoma
[15] = system: A549 NSCLC
[16] = system: CCRF-CEM leukemia
[17] = system: MCF7 breast
[18] = system: NCI/ADR-RES ovarian

SMILES | TGI [1] | TGI [2] | TGI [3] | TGI [4] | TGI [5] | TGI [6] | TGI [7] | TGI [8] | TGI [9] | TGI [10] | TGI [11] | TGI [12] | TGI [13] | TGI [14] | TGI [15] | TGI [16] | TGI [17] | TGI [18] | GI50 [1]
Cc1ccc(-c2cc(-c3ccc(Cl)cc3)nc(/N=C3\C(=O)N(CN4CCOCC4)c4ccccc43)n2)cc1 | 81.7 µM | > 100 µM | 37.2 µM | > 100 µM | > 100 µM | 50.8 µM | > 100 µM | 51.5 µM | 76.8 µM | > 100 µM | 93.9 µM | > 100 µM | > 100 µM | 50.5 µM | 39.7 µM | 88.2 µM | > 100 µM | > 100 µM | –
C/C(=C/c1ccccc1)CN(C(=O)/C=C\Sc1ccccc1)C(C)(C)C | > 100 µM | > 38.1 µM | > 100 µM | > 100 µM | > 100 µM | > 100 µM | > 100 µM | > 47.8 µM | > 100 µM | > 100 µM | > 100 µM | > 100 µM | > 100 µM | > 100 µM | > 100 µM | > 100 µM | > 100 µM | > 100 µM | –
CC(C)(C)N1C(=O)c2ccccc2C1(O)C(F)(F)F (stereo unspecified) | > 100 µM | > 100 µM | > 100 µM | > 100 µM | > 100 µM | > 100 µM | > 100 µM | 97.8 µM | > 100 µM | > 100 µM | > 100 µM | > 100 µM | > 100 µM | > 100 µM | > 100 µM | > 100 µM | > 100 µM | > 100 µM | –
CC1C(=NO)C(C)C(c2ccccc2)N(N=O)C1c1ccccc1 (stereo unspecified) | 55.7 µM | 35.7 µM | 39.5 µM | 81.8 µM | 28.8 µM | 32.1 µM | > 100 µM | 36.7 µM | > 100 µM | 90.8 µM | 33.3 µM | 29.5 µM | 54.4 µM | 29.3 µM | 40.7 µM | 84.5 µM | > 100 µM | 37 µM | –
COc1ccc2oc(=Nc3ccccc3)c(C(N)=O)cc2c1 | > 87.6 µM | > 100 µM | > 100 µM | > 100 µM | > 100 µM | > 100 µM | > 100 µM | > 70.1 µM | > 100 µM | > 100 µM | > 100 µM | > 100 µM | > 100 µM | > 100 µM | > 100 µM | > 100 µM | > 100 µM | > 100 µM | –
COc1cc(C2SCC(=O)N2Cc2ccccc2)cc(OC)c1OC (stereo unspecified) | > 100 µM | > 100 µM | > 100 µM | > 100 µM | > 100 µM | > 100 µM | > 100 µM | > 100 µM | > 100 µM | > 100 µM | > 100 µM | > 100 µM | > 100 µM | > 100 µM | > 100 µM | > 100 µM | > 100 µM | > 100 µM | –
Cc1c(-c2ccccc2)[nH]c2ccc(Cl)cc2c1=O | > 100 µM | > 100 µM | 87 µM | > 100 µM | > 100 µM | > 100 µM | > 100 µM | > 100 µM | > 100 µM | > 100 µM | 52 µM | > 100 µM | 59.7 µM | > 100 µM | 0.205 µM | > 100 µM | > 100 µM | > 100 µM | –
CCOC(=O)N1CC2(C)C=CC1C(C(=O)OC)C2 (stereo unspecified) | > 100 µM | > 100 µM | > 100 µM | > 100 µM | > 100 µM | > 100 µM | > 100 µM | > 100 µM | > 100 µM | > 100 µM | > 100 µM | > 100 µM | > 100 µM | > 100 µM | > 100 µM | > 100 µM | > 100 µM | > 100 µM | –
Nc1ccc(Oc2ccc(C3(c4ccc(Oc5ccc(N)cc5)cc4)C4CC5C6CC7CC5C3C(C7)C6C4)cc2)cc1 | > 100 µM | > 100 µM | > 100 µM | > 100 µM | 98.5 µM | > 100 µM | > 100 µM | > 100 µM | > 100 µM | > 100 µM | > 100 µM | > 100 µM | > 100 µM | > 66.4 µM | > 100 µM | > 100 µM | > 100 µM | > 100 µM | –
COc1cccc(C(=O)Nc2c3ccccc3nc3ccccc23)c1OC | > 100 µM | > 100 µM | > 100 µM | > 100 µM | > 100 µM | > 100 µM | > 100 µM | > 100 µM | > 100 µM | > 100 µM | > 100 µM | > 100 µM | > 100 µM | > 100 µM | > 100 µM | > 100 µM | > 100 µM | > 100 µM | –
CCc1n[nH]c(=O)n1N1C(=O)CCC1=O | > 100 µM | > 100 µM | > 100 µM | > 100 µM | > 100 µM | > 100 µM | > 100 µM | > 100 µM | > 100 µM | > 100 µM | > 100 µM | > 100 µM | > 100 µM | > 100 µM | > 100 µM | > 100 µM | > 100 µM | > 100 µM | –
CC1=CC=C2c3ccccc3C=CN2C(=O)C1 | 84.9 µM | > 100 µM | > 100 µM | > 100 µM | > 100 µM | > 100 µM | > 100 µM | > 100 µM | > 100 µM | > 100 µM | > 100 µM | > 100 µM | > 100 µM | > 100 µM | > 100 µM | > 100 µM | > 100 µM | > 100 µM | –
Cc1n[n+](CC(=O)c2ccccc2)c2sc(N)nn12 | > 100 µM | > 100 µM | > 100 µM | > 100 µM | > 100 µM | > 100 µM | > 100 µM | > 100 µM | > 100 µM | > 100 µM | > 100 µM | > 100 µM | > 100 µM | > 100 µM | > 100 µM | > 100 µM | > 100 µM | > 100 µM | –
CCCc1cc(=O)oc2c(C=O)c(O)cc(O)c12 | > 100 µM | 76.5 µM | 48.4 µM | 56.3 µM | 78.9 µM | 69.5 µM | 59.3 µM | 61.2 µM | > 100 µM | 82.2 µM | 47.2 µM | 85 µM | 73.5 µM | 40.3 µM | > 100 µM | 51.4 µM | 80 µM | 73 µM | –
O=C(NO)c1ccc(OCc2cccc(Cl)c2)cc1 | 32.3 µM | 38.2 µM | 70.4 µM | 30.2 µM | 55.9 µM | 26 µM | > 44.1 µM | > 96 µM | > 31.6 µM | > 47.3 µM | 14.4 µM | 35.2 µM | > 58 µM | > 56.6 µM | > 63.8 µM | > 100 µM | > 100 µM | > 29.8 µM | –
O=C1Oc2ccccc2C(=O)/C1=C/N1C(=O)/C(=C/c2ccc3c(c2)OCO3)SC1=S | 22.7 µM | 32.6 µM | 34.2 µM | > 100 µM | 51.6 µM | 32.4 µM | 30.6 µM | 14.9 µM | 35.7 µM | 49.1 µM | > 51.2 µM | 35 µM | 47.9 µM | > 58.8 µM | 35.4 µM | > 61.3 µM | > 58.4 µM | 48.4 µM | 10.1 µM
O=c1c(-c2c(-c3ccccc3)oc3ccc(Cl)cc3c2=O)c(-c2ccccc2)oc2ccc(Cl)cc12 | > 100 µM | > 92.3 µM | > 100 µM | > 100 µM | > 100 µM | > 100 µM | > 100 µM | > 100 µM | > 100 µM | > 100 µM | > 100 µM | > 79.4 µM | > 100 µM | > 100 µM | > 100 µM | > 100 µM | > 100 µM | > 100 µM | –
COC(=O)C(Cc1ccccc1)NC(=O)C(CCC(=O)OCc1ccccc1)NC(=O)OC(C)(C)C (stereo unspecified) | > 100 µM | > 100 µM | > 100 µM | > 100 µM | > 100 µM | > 100 µM | > 100 µM | > 100 µM | > 100 µM | > 100 µM | > 100 µM | > 100 µM | > 100 µM | > 100 µM | > 100 µM | > 100 µM | > 100 µM | > 100 µM | –
CCOC(=O)CC(=O)C(=O)NNC1=NCCN1 | > 100 µM | > 100 µM | > 100 µM | > 100 µM | > 100 µM | > 100 µM | > 100 µM | > 100 µM | > 100 µM | > 100 µM | > 100 µM | > 100 µM | > 100 µM | > 100 µM | > 100 µM | > 100 µM | > 100 µM | > 100 µM | –
NC(=O)NC(=O)CCC(NS(=O)(=O)c1ccccc1)C(=O)NC(N)=O (stereo unspecified) | > 100 µM | > 100 µM | > 100 µM | > 100 µM | > 100 µM | > 100 µM | > 100 µM | > 100 µM | > 100 µM | > 100 µM | > 100 µM | > 100 µM | > 100 µM | > 100 µM | > 100 µM | > 100 µM | > 100 µM | > 100 µM | –
